From PubChem BioAssay AID286 (DTP/NCI, 2004)
Where “and” joins values, the source holds several entries; their conditions need not be identical. Equal values may be shown once. Toxic doses and inconclusive results are not listed. Starred links: 1 amine or outer side, 2 acyl side, 3 side chain; linkers in the order of their positions; H or OH if unused. Positions of bridges follow the written chain, without caps; N, C: chain ends. Non-standard residues stand in square brackets, D forms with d. Residues, ends and D or L forms follow the SMILES beside them. Chains are numbered I, II in the order given. ξ: configuration not given here. *: point of attachment. Quinaldoyl(3-OH,6-OMe) = COc1ccc2nc(C(=O)*)c(O)cc2c1; X1 = CCC(=O)OC1CC=NN([*:1])C1C(=O)[*:2]; X2 = CC(=O)OC1CC=NN([*:1])C1C(=O)[*:2]; ξNMeVal(3-OH) = CNC(C(=O)O)C(C)(C)O; Sar = CNCC(=O)O

System: BDF1 mice, M5076 sarcoma ip, median survival T/C
Assay: NCI In Vivo Anticancer Drug Screen. Data for tumor model Sarcoma M5076 (intraperitoneal) in B6D2F1 (BDF1) mice
Details: endpoint: median survival time, higher = longer survival
Procedure: The antitumor activity of compounds was measured in mice bearing transplantable tumors. Survival or tumor size were measured and the results are expressed as the measurement made in the treated group (T) divided by the measurement made in the vehicle treated control group (C). The tumor model used in this assay is Sarcoma M5076 (intraperitoneal) in B6D2F1 (BDF1) mice

[1] = dose: 3.12 mg/kg/injection, schedule: Q01DX009 (ip), vehicle: Klucel (hydroxypropylcellulose) (HPC)
[2] = dose: 6.25 mg/kg/injection, schedule: Q01DX009 (ip), vehicle: Klucel (hydroxypropylcellulose) (HPC)
[3] = dose: 12.5 mg/kg/injection, schedule: Q01DX009 (ip), vehicle: Klucel (hydroxypropylcellulose) (HPC)
[4] = dose: 1.56 mg/kg/injection, schedule: Q01DX009 (ip), vehicle: Klucel (hydroxypropylcellulose) (HPC)
[5] = dose: 25.0 mg/kg/injection, schedule: Q04DX004 (ip), vehicle: saline with Tween-80
[6] = dose: 50.0 mg/kg/injection, schedule: Q04DX004 (ip), vehicle: saline with Tween-80
[7] = dose: 100.0 mg/kg/injection, schedule: Q04DX004 (ip), vehicle: saline with Tween-80

Question: For `CC[C@]1(O)C[C@H]2CN(CCc3c([nH]c4ccccc34)[C@@](C(=O)OC)(c3cc4c(cc3OC)N(C)[C@H]3[C@@](O)(C(=O)OC)[C@H](OC(C)=O)[C@]5(CC)C=CCN6CC[C@]43[C@@H]65)C2)C1`, which T/C (dose: 0.38 mg/kg/injection, schedule: Q04DX005 (ip), vehicle: saline) is on record?
Answer: 180 % of control

Question: And the T/C (dose: 0.75 mg/kg/injection, schedule: Q04DX005 (ip), vehicle: saline)?
Answer: 293 % of control

Question: What about the T/C (dose: 1.5 mg/kg/injection, schedule: Q04DX005 (ip), vehicle: saline) of the same compound?
Answer: 202 % of control and 401 % of control

Question: And the T/C (dose: 3.0 mg/kg/injection, schedule: Q04DX005 (ip), vehicle: saline)?
Answer: 401 % of control and 160 % of control

Question: What does the source list for `COC(=O)C1=C2Nc3ccccc3C23CCN2C(O)C4(CC5CC67CCOC6CCN6CCC8(c9cccc(OC)c9N(C4)C58O)C67)C4OCCC4(C1)C23` (stereo not given)?
Answer: T/C [1]: 102 % of control; T/C [2]: 100 % of control; T/C [3]: 106 % of control; T/C (dose: 25.0 mg/kg/injection, schedule: Q01DX009 (ip), vehicle: Klucel (hydroxypropylcellulose) (HPC)): 99 % of control; T/C (dose: 50.0 mg/kg/injection, schedule: Q01DX009 (ip), vehicle: Klucel (hydroxypropylcellulose) (HPC)): 104 % of control

Question: For `CCC/C=C/C=C/C(=O)OC1/C(=C/C(=O)OC)CC2CC(C(C)O)OC(=O)CC(O)CC3CC(OC(C)=O)C(C)(C)C(O)(CC4C/C(=C/C(=O)OC)CC(/C=C/C(C)(C)C1(O)O2)O4)O3` (stereo not given), which T/C (dose: 20.0 micrograms/kg/injection, schedule: Q01DX009 (ip), vehicle: saline + Tween-80 + alcohol) is on record?
Answer: 158 % of control

Question: And the T/C (dose: 40.0 micrograms/kg/injection, schedule: Q01DX009 (ip), vehicle: saline + Tween-80 + alcohol)?
Answer: 168 % of control

Question: What about the T/C (dose: 80.0 micrograms/kg/injection, schedule: Q01DX009 (ip), vehicle: saline + Tween-80 + alcohol) of the same compound?
Answer: 160 % of control

Question: Which T/C (dose: 12.5 mg/kg/injection, schedule: Q04DX004 (ip), vehicle: saline) does the source give for `CC[C@](O)(C(=O)O)c1cc2n(c(=O)c1CO)Cc1cc3ccccc3nc1-2` here?
Answer: 124 % of control

Question: `O=C1c2c(O)ccc(O)c2C(=O)c2c(NCCNCCO)ccc(NCCNCCO)c21` was tested. Which T/C (dose: 0.25 mg/kg/injection, schedule: Q04DX004 (ip), vehicle: water) did it give?
Answer: 236 % of control

Question: And the T/C (dose: 0.5 mg/kg/injection, schedule: Q04DX004 (ip), vehicle: water)?
Answer: 260 % of control

Question: What about the T/C (dose: 0.5 mg/kg/injection, schedule: Q04DX005 (ip), vehicle: saline) of the same compound?
Answer: 401 % of control

Question: What about the T/C (dose: 1.0 mg/kg/injection, schedule: Q04DX004 (ip), vehicle: water) of the same compound?
Answer: 260 % of control

Question: What about the T/C (dose: 1.0 mg/kg/injection, schedule: Q04DX005 (ip), vehicle: saline) of the same compound?
Answer: 321 % of control

Question: And the T/C (dose: 2.0 mg/kg/injection, schedule: Q04DX004 (ip), vehicle: water)?
Answer: 260 % of control

Question: And the T/C (dose: 2.0 mg/kg/injection, schedule: Q04DX005 (ip), vehicle: saline)?
Answer: 99 % of control

Question: And the T/C (dose: 4.0 mg/kg/injection, schedule: Q04DX004 (ip), vehicle: water)?
Answer: 100 % of control

Question: Which T/C [4] does the source give for `COC1CC2C=C(C)/C=C/C=C/C(=O)NC(c3ccccc3)C/C=C/CCC(O)CC(=O)C2=C1O` (stereo not given) here?
Answer: 115 % of control

Question: Which T/C (dose: 12.5 mg/kg/injection, schedule: Q04DX004 (ip), vehicle: saline with Tween-80) does the source give for `CC(=O)C[n+]1ccc(C)cc1Sc1ccccc1C` here?
Answer: 104 % of control

Question: What about the T/C [5] of the same compound?
Answer: 98 % of control

Question: And the T/C [6]?
Answer: 92 % of control

Question: And the T/C [7]?
Answer: 94 % of control

Question: For `COc1cc(NCc2ccc3nc(N)nc(N)c3c2C)cc(OC)c1OC`, which T/C (dose: 10.0 mg/kg/injection, schedule: Q01DX009 (ip), vehicle: Klucel (hydroxypropylcellulose) (HPC)) is on record?
Answer: 173 % of control

Question: What about the T/C (dose: 15.0 mg/kg/injection, schedule: Q04DX005 (ip), vehicle: Klucel (hydroxypropylcellulose) (HPC)) of the same compound?
Answer: 168 % of control

Question: And the T/C (dose: 20.0 mg/kg/injection, schedule: Q01DX009 (ip), vehicle: Klucel (hydroxypropylcellulose) (HPC))?
Answer: 173 % of control

Question: And the T/C (dose: 30.0 mg/kg/injection, schedule: Q04DX005 (ip), vehicle: Klucel (hydroxypropylcellulose) (HPC))?
Answer: 171 % of control

Question: And the T/C (dose: 60.0 mg/kg/injection, schedule: Q04DX005 (ip), vehicle: Klucel (hydroxypropylcellulose) (HPC))?
Answer: 206 % of control

Question: With `O=C(O)C1(C(=O)O)CCC1.[NH2-].[NH2-].[Pt+2]` as the compound, how does the T/C (dose: 15.6 mg/kg/injection, schedule: Q04DX005 (ip), vehicle: water) read?
Answer: 186 % of control

Question: And the T/C (dose: 25.92 mg/kg/injection, schedule: Q04DX005 (ip), vehicle: water)?
Answer: 182 % of control

Question: What about the T/C (dose: 43.2 mg/kg/injection, schedule: Q04DX005 (ip), vehicle: water) of the same compound?
Answer: 194 % of control

Question: And the T/C (dose: 72.0 mg/kg/injection, schedule: Q04DX005 (ip), vehicle: water)?
Answer: 220 % of control

Question: And the T/C (dose: 120.0 mg/kg/injection, schedule: Q04DX005 (ip), vehicle: water)?
Answer: 275 % of control

Question: Which T/C [5] does the source give for `Cc1ccc2c(c1)n([O-])c1cc(Cl)ccc1[n+]2=O` here?
Answer: 109 % of control

Question: And the T/C [6]?
Answer: 112 % of control

Question: And the T/C [7]?
Answer: 110 % of control

Question: And the T/C (dose: 200.0 mg/kg/injection, schedule: Q04DX004 (ip), vehicle: saline with Tween-80)?
Answer: 110 % of control

Question: What about the T/C (dose: 400.0 mg/kg/injection, schedule: Q04DX004 (ip), vehicle: saline with Tween-80) of the same compound?
Answer: 115 % of control

Question: What does the source list for `Nc1ccn(C2OC(CO)C(O)C2O)c(=O)n1` (stereo not given)?
Answer: T/C (dose: 125.0 mg/kg/injection, schedule: Q04DX005 (ip), vehicle: saline): 164 % of control; T/C (dose: 250.0 mg/kg/injection, schedule: Q04DX005 (ip), vehicle: saline): 184 % of control; T/C (dose: 500.0 mg/kg/injection, schedule: Q04DX005 (ip), vehicle: saline): 185 % of control; T/C (dose: 1000.0 mg/kg/injection, schedule: Q04DX005 (ip), vehicle: saline): 199 % of control

Question: What does the source list for `COc1cc2c(cc1OC)[C@@H]1C(=O)c3ccc4c(c3O[C@@H]1CO2)C[C@H](C(C)C)O4`?
Answer: T/C [4]: 112 % of control and 114 % of control; T/C [1]: 110 % of control; T/C [2]: 122 % of control; T/C [3]: 124 % of control

Question: Which results are given for `CCN(CC)CCNc1ccc(C)c2sc3ccccc3c(=O)c12`?
Answer: T/C (dose: 5.0 mg/kg/injection, schedule: Q04DX004 (ip), vehicle: water): 113 % of control; T/C (dose: 10.0 mg/kg/injection, schedule: Q04DX004 (ip), vehicle: water): 112 % of control; T/C (dose: 20.0 mg/kg/injection, schedule: Q04DX004 (ip), vehicle: water): 103 % of control; T/C (dose: 40.0 mg/kg/injection, schedule: Q04DX004 (ip), vehicle: water): 112 % of control; T/C (dose: 160.0 mg/kg/injection, schedule: Q04DX004 (ip), vehicle: water): 108 % of control

Question: With `CCC(=O)OC1CC=NN2C(=O)C(NC(=O)c3nc4ccc(OC)cc4cc3O)COC(=O)C(C(C)(C)O)N(C)C(=O)CN(C)C(=O)CNC(=O)C3C(OC(C)=O)CC=NN3C(=O)C(NC(=O)c3nc4ccc(OC)cc4cc3O)COC(=O)C(C(C)(C)O)N(C)C(=O)CN(C)C(=O)CNC(=O)C12` (stereo not given) (I: {Quinaldoyl(3-OH,6-OMe)}-S[X1]G[Sar][ξNMeVal(3-OH)] / II: {Quinaldoyl(3-OH,6-OMe)}-S[X2]G[Sar][ξNMeVal(3-OH)]; ester I:1-II:C, I:C-II:1; configuration not given here) as the compound, how does the T/C (dose: 18.75 micrograms/kg/injection, schedule: Q01DX009 (ip), vehicle: DMSO) read?
Answer: 117 % of control

Question: What about the T/C (dose: 37.5 micrograms/kg/injection, schedule: Q01DX009 (ip), vehicle: DMSO) of the same compound?
Answer: 165 % of control and 169 % of control

Question: What about the T/C (dose: 75.0 micrograms/kg/injection, schedule: Q01DX009 (ip), vehicle: DMSO) of the same compound?
Answer: 191 % of control and 160 % of control

Question: And the T/C (dose: 150.0 micrograms/kg/injection, schedule: Q01DX009 (ip), vehicle: DMSO)?
Answer: 165 % of control

Question: Which T/C (dose: 50.0 mg/kg/injection, schedule: Q01DX009 (ip), vehicle: sodium bicarbonate) does the source give for `Nc1nc2c(c(=O)[nH]1)N(C=O)C(CNc1ccc(C(=O)N[C@@H](CCC(=O)O)C(=O)O)cc1)CN2` (stereo not given in full) here?
Answer: 96 % of control

Question: And the T/C (dose: 100.0 mg/kg/injection, schedule: Q01DX009 (ip), vehicle: sodium bicarbonate)?
Answer: 86 % of control

Question: What about the T/C (dose: 200.0 mg/kg/injection, schedule: Q01DX009 (ip), vehicle: sodium bicarbonate) of the same compound?
Answer: 94 % of control

Question: What does the source list for `CCC(C)C(N)C(=O)NC(CC(N)=O)C(=O)NC(CC(C)C)C(=O)NC(CCCCN)C(=O)NC(C)C(=O)NC(CC(C)C)C(=O)NC(C)C(=O)NC(C)C(=O)NC(CC(C)C)C(=O)NC(C)C(=O)NC(CCCCN)C(=O)NC(CCCCN)C(=O)NC(C(=O)NC(CC(C)C)C(N)=O)C(C)CC` (stereo not given)?
Answer: T/C [4]: 95 % of control; T/C [1]: 101 % of control; T/C [2]: 96 % of control; T/C [3]: 98 % of control

Question: With `CCC/C=C/C=C/C(=O)OC1C(C)C2(O)C3C=C(C)C(=O)C3CC(COC(C)=O)=CC2C2C(C)(C)C12OC(=O)C(C)C` (stereo not given) as the compound, how does the T/C (dose: 0.38 mg/kg/injection, schedule: Q01DX009 (ip), vehicle: saline + alcohol) read?
Answer: 110 % of control

Question: And the T/C (dose: 0.75 mg/kg/injection, schedule: Q01DX009 (ip), vehicle: saline + alcohol)?
Answer: 103 % of control

Question: What about the T/C (dose: 1.5 mg/kg/injection, schedule: Q01DX009 (ip), vehicle: saline + alcohol) of the same compound?
Answer: 110 % of control

Question: And the T/C (dose: 3.0 mg/kg/injection, schedule: Q01DX009 (ip), vehicle: saline + alcohol)?
Answer: 114 % of control

Question: And the T/C (dose: 6.0 mg/kg/injection, schedule: Q01DX009 (ip), vehicle: saline + alcohol)?
Answer: 115 % of control
